Reference: patent publication US6759385B1, “Methods to treat undesirable immune responses” (Regents of the University of Minnesota, priority 1997, dated 2004)

Tests used:
[1] = tested on: EMG in B6 mice immunized with TAChR; assay: Nasal tolerization, EMG symptoms by pancuronium-sensitized inverted hang test (Example I); type: in vivo, mouse
Method: Mice and Induction of Tolerance. B6 mice were purchased from Jackson Laboratory (Bar Harbor, Me.) and housed at the animal facility of the University of Minnesota. After light anesthesia by i.m. injection of Ketaset (100 mg/kg; Alveco Co., Inc., Fort Dodge, Iowa), the mice received into both nostrils a total of 25 μl of PBS containing 50 μg of peptide Tα150-169, either alone or pooled with equimolar amounts of peptides Tα180-200 and Tα360-378 (referred to as “peptide pool” or “αpool” ). The dose was based on the results of an experiment in which increasing amounts of peptide α150-169 were used (50 μg, 100 μg, 200 μg, 400 μg and 800 μg). […] The tolerogen was administered as a solution instilled into the nostrils, a method of delivery which allowed accurate administration of a defined amount of solution.
In protocol A, peptides or peptide-free PBS were administered two weeks before the first TAChR immunization, and then three more times, on the same day as the three immunizations with TAChR (at one month intervals, see below). In protocol B, peptides or peptide-free PBS were administered weekly, starting two weeks before beginning of the immunization with TAChR, for a total of 14 treatments (two before and 12 during TAChR immunization).
Immunization. Eight-ten week old mice were immunized by subcutaneous injections, along the back and at the base of the tail, with solubilized TAChR (50 μg), peptide Tα150-169 (100 μg), or the peptide pool (100 μg of each peptide). The mice were boosted twice at 4 week intervals with the same amouni of antigen. The antigen solutions (in 100 μl PBS) were emulsified with an equal volume of complete Freund's adjuvant (FA) for the first injection, and with incomplete FA for the boosts. Control mice were injected with PBS emulsified in the appropriate adjuvant.
Evaluation of the Clinical Symptoms of EMG. EMG symptoms were quantified by a forced exercise using the inverted hang technique, sensitized by administration of a minute amount of pancuronium bromide (0-03 mg/kg i.p.) just prior to the beginning of the test (Karachunski et al., 1995). The mice hang from a grid, and the time it takes for the mouse to release its hold and fall three times (“holding time”) was measured. The test was performed on the day of the first nasal administration, on the day before each immunization, and 7-14 days after the third immunization, just before sacrificing the animal. This test is parametric, and gives a quantitative assessment of the severity of the weakness.
The holding time of normal mice was 10.4±2.1 minutes (n=99). […]

[2] = tested on: serum anti-TAChR antibody; assay: Anti-AChR antibody assay by RIPA (Example I); type: in vivo, mouse
From the text: Sera was obtained from the mice after each clinical testing. […] The antibody concentration is expressed as μM precipitated ^125I-αBTX.

[3] = tested on: EMG in B6 mice immunized with TAChR; assay: Subcutaneous tolerization, prevention protocol, EMG symptoms (Example IV); type: in vivo, mouse
Method: B6 mice (Jackson Laboratory, Bar Harbor, Me.) were injected s.c. with 100 μl of PBS containing increasing amounts of a pool of the same amount in weight of each of the three epitope peptides Tα150-169, Tα180-200 and Tα360-378 (‘peptide pool’), or 200 μg of Tα150-169 alone, or 100 μl of PBS containing 0.1% Triton X-100 and 10 μg of solubilized TAChR. Two different treatment schedules were used, referred to as prevention and post-priming protocols. In the prevention protocol, the peptides or solubilized TAChR were administered twice per week for 14 weeks, starting 2 weeks before the beginning of the immunization with TAChR. In the post-priming protocol, peptides or solubilized TAChR were administered twice per week for […], starting 8 weeks after the beginning of the TAChR immunization. Control mice received 100 μl of peptide-free PBS, following the same schedules.
Immunization 8-10 week old mice were immunized by s.c. injections, along the back and at the base of the tail, of TAChR (a total of 50 μg in 100 μl of PBS for each immunization) emulsified in an equal volume of CFA for the first injection, and IFA for the following two boosts. The mice were injected for a total of three times at 3-4 week intervals. At the end of the observation period, the mice received a third boost, and were sacrificed 5-7 days later. Control mice were injected with clean PBS in the appropriate adjuvant.
Evaluation of the symptoms of EMG The EMG symptoms were quantified using a forced exercise test sensitized by i.p. injection of a minute amount of pancuronium bromide (0.03 mg/kg) just before the test (Karachunski et al., 1995). The mouse hangs from a grid suspended above a soft padding, and the time it takes the mouse to fall three times (‘holding time’) was measured. The test is parametric, and gives a quantitative assessment of the mouse weakness. The myasthenic nature of the weakness was verified by injecting i.p. edrophonium chloride (Reversol, Organon, West Orange, N.J.), which is a cholinesterase inhibitor. […] The mice were tested without knowledge of their treatment.
The holding time of normal mice was 10.4±2.1 minutes (n=99). Mice with holding times of 8 minutes or longer were considered normal. Mice with holding times less than 6.2 minutes (the holding time of normal mice minus two SD) were considered to have fully developed EMG. Holding times of 6.2-8 minutes were considered to potentially indicate initial EMG. Normal or sham-immunized mice had occasionally holding times of 6.2-8 minutes, but never less than 6.2 minutes. Paralyzed mice and mice that died of respiratory paralysis are indicated as having holding time of 0 minutes.

[4] = tested on: CD8+ depleted spleen cells; assay: Cytokine secretion in response to TAChR by CD8+ depleted spleen cells (Example IV); type: cell-based, mouse; conditions: s.c. 200 μg/injection, 72 hours
Method: Cytokine secretion in response to TAChR by spleen CD4^+ cells in vitro. Five to seven days after the last immunization, spleen cells of three identically treated mice were pooled, and depleted them of CD8^+ cells using paramagnetic beads and rat anti-mouse CD8^+ Ab (Pharmingen, San Diego, Calif.), following the manufacturer's instructions. The CD8^+ depleted, CD4^+ enriched cells were cultured with 10 μg/ml TAChR, or without any stimulus. 24 well plates were used, and duplicate cultures prepared. The supernatants were harvested after 72 hours, and the concentrations of IFN-γ, IL-4 and IL-10 determined in duplicate samples by capture ELISA using anti-INF-γ, anti-IL-4, anti-IL-10 Ab, and recombinant INF-γ, IL-4 and IL-10 (Pharmingen) as standards, and following the manufacturer's instructions.

[5] = s.c. 200 μg/injection, second experiment

**Q.** For “peptide Tα150-169: synthetic peptide corresponding to residues 150-169 of the TAChR α subunit (TYDGTKVSISPESDRPDLST; UniProt P02710 174-193, looked up, fragment)”, which “mice that developed EMG” value ([1]; nasal protocol A (monthly), TAChR-immunized B6 mice) is on record?
**A.** 42%

**Q.** What about the “mice with detectable weakness” value ([1]; nasal protocol B (weekly), TAChR-immunized B6 mice) of the same substance?
**A.** none

**Q.** And the “protection from EMG, dose finding” value ([1]; nasal, lowest dose 50 μg of 50-800 μg)?
**A.** satisfactory level of protection

**Q.** What about the “holding time compared with sham-tolerized mice” value ([1]; nasal, protocols A and B) of the same substance?
**A.** significantly longer holding times

**Q.** And the “serum anti-TAChR antibody concentration compared with sham-treated” value ([2]; as early as 4 weeks after first TAChR immunization)?
**A.** significantly lower concentrations

**Q.** And the “serum anti-TAChR antibody concentration” value ([2]; at ten weeks, nasal protocol B, μM precipitated 125I-αBTX)?
**A.** 5.5 ± 1.5 µM

**Q.** And the “mice with EMG at 8 weeks” value [3, 5]?
**A.** One mouse

**Q.** And the “prevention of EMG” value [3, 5]?
**A.** prevented EMG effectively

**Q.** What about the “holding times compared with sham-tolerized groups” value ([3]; s.c. prevention protocol) of the same substance?
**A.** significantly longer holding times

**Q.** And the “TAChR-induced IFN-γ secretion” value [4]?
**A.** did not cause increased

**Q.** What about the “TAChR-induced IL-4 secretion” value [4] of the same substance?
**A.** significant increase

**Q.** What about the “TAChR-induced IL-10 secretion” value [4] of the same substance?
**A.** in one of the two cultures tested
